Where “and” joins values, the source holds several entries; their conditions need not be identical. Identical values can stand only once. No end group written: not given here.
Experiments:
[1] = test system: EGFP reporter gene in EGFP-U2OS, EGFP-HEK, EGFP-JURKAT cells; assay: EGFP reporter gene disruption from CPP delivery of CAS9:sgRNA (flow cytometry); assay type: cell-based, human; details: for reduction of EGFP-positive cells: EGFP-JURKAT; for decrease in EGFP expression: CAS9:gRNA 50 nM, CPP:cargo 20:1; for reduction of EGFP-expressing cells / loss of EGFP expression: JURKAT;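 as to all read-outs here: cells carrying one integrated EGFP reporter received peptide-complexed CAS9 preloaded 1:1 with EGFP sgRNA, cultured 72 h, then EGFP level read by flow cytometry, lipofectamine 2000 and RNAiMAX as positive controls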
Protocol: Efficacy of CPP-mediated delivery was quantified using a well-established CAS9-induced gene disruption method (Fu et al, 2013, supra), by targeting a specific site in the exogenous EGFP gene reporter in three human cell lines expressing EGFP (GFP-U2OS, EGFP-HEK, EGFP-JURKAT).
Stock solutions of amphipathic peptides were prepared at 1 mg/mL in distilled water and sonicated for 10 min. CAS9 protein was preloaded with purified EGFP sgRNA at a molar ratio of 1:1 and incubated for 10 min prior to forming complexes with the peptides. Preloaded CAS9/gRNA complexes (10 nM, 25 nM, and 50 nM) were mixed with CPPs at 5:1, 10:1 and 20:1 molar ratios of CPP to cargo and incubated for 30 min at 37° C. prior to cell transfection.
Cell line containing a single integrated EGFP reporter gene (GFP-U2OS, EGFP-HEK and EGFP-JURKAT) were cultured in Dulbecco's Modified Eagle's Medium (DMEM), supplemented with 2 mM glutamine, 1% antibiotics (streptomycin 10,000 μg/mL, penicillin, 10,000 IU/mL) and 10% (w/v) foetal calf serum (FCS) at 37° C. in a humidified atmosphere containing 5% CO2. A total of 150,000 cells seeded in a 35 mm dish the day prior to transfection were grown to 50-60% confluence and overlaid with 200 μl of preformed complexes, incubated for 3-5 min, then 400 μl of DMEM was added. After 30 min incubation at 37° C., 1 mL of fresh DMEM containing 16% FCS was added to reach a final FCS concentration of 10%, without removing the overlay of CPP/CAS9-gRNA complexes. Cells were returned to the incubator for 72 hours.
CAS9-induced double-strand break formation was analyzed using flow cytometry by monitoring level of EGFP expression. […] Both lipofectamine 2000 and RNAiMAX delivery methods were used as positive controls.

[2] = test system: endogenous hPD1 gene in JURKAT and K562 cells; assay: hPD1 gene editing in T cell lines (T7E1 assay); assay type: cell-based, human; details: CAS9/sgRNA 5 μg/10 μg
Protocol: CAS9 protein was preloaded with purified sgRNA at a molar ratio of 1:1 and incubated for 10 min prior to forming complexes with peptides.
5×10^6 cells were washed twice with DPBS by centrifuging at 800 rpm for 5 minutes and resuspended in 100 ^l transfection buffer, and then transferred into the electroporation cuvette. An optimized program selected for both high transfection and high efficiency on T cells was used. After electroporation, cells were resuspended in 500 ^l pre-warmed AIM-V medium containing 10% FBS and incubated at 37° C. in 5% CO2. The transfection efficiency was evaluated after 48 hr by flow cytometry or T7E1 assay.
RNAiMAX delivery method was used as positive control. Cells were either resuspended in or overlaid with 100 μl of preformed complexes, incubated for 3-5 min, and then 300 μl of DMEM was added. […] The indel frequency in the hPD1 gene was quantified using the T7E1 assay.

[3] = test system: hPD1 gene in human T cells; assay: hPD1 gene editing in primary human T cells (T7E1 assay); assay type: cell-based
Protocol: T cells were isolated from PBMCs (2 different donors) using anti-CD3/anti-CD28 antibodies bound to paramagnetic beads (Dynabeads ClinExVivo CD3/CD28, Invitrogen) at a ratio of 3:1 (beads:cells). The cells and beads were co-incubated for 2 hours at room temperature and CD3′ cell enrichment was performed using Dynal ClinExVIVO MPC magnet (Thermo Fisher). The anti-CD3/anti-CD28 paramagnetic beads were removed, washed and concentrated. Cells in the CD3′ fraction were resuspended in activation media at a concentration of 1×10^6 cells/ml with AIM-V medium (Thermo Fishers) supplemented with 10% fetal calf serum, 300 IU/ml IL2 and 50 ng/ml OKT3 (MuromonAB-CD3) for two days.
Cells were transfected by electroporation with CD-19 plasmid or gRNA/CAS9 (5 μg/10 μg) using a Nucleofector 2b (Lonza, Germany) with the Amaxa Human T cells Nucleofector Kit, VPA-1002 (Lonza, Germany). 5×10^6 cells were washed twice with DPBS by centrifuging at 800 rpm for 5 minutes and resuspended in 100 ^l transfection buffer, and then transferred into the electroporation cuvette. An optimized program selected for both high transfection and high efficiency on T cells was used. After electroporation, cells were resuspended in 500 ^l pre-warmed AIM-V medium containing 10% FBS and incubated at 37° C. in 5% CO2. The transfection efficiency was evaluated after 48 hr by flow cytometry or T7E1 assay.
As control, CAS9 loaded with gRNA targeting GFP was used.
Cells were returned to the incubator for 72 hours. CAS9-induced double-strand break followed by repair through non-homologous end joining (NHEJ) was analyzed by either the T7E1 assay or using the Genome Cleavage Detection kit (GCD Thermo Fisher) and quantified using Fragment Analyzer System. The indel frequency in the target gene was quantified using the T7E1 assay. The cultures were expanded and analyzed for viability and PD1 levels every 10 days. T cell expansion medium contained AIM V medium, supplemented with 5% heat-inactivated human AB Serum, 1% Gluta-Max, and 300 IU/mL IL-2.

[4] = CPP/CAS9 and CPP/CAS9:gRNA particle size, polydispersity, zeta potential (Zetasizer 4); assay type: physicochemical
Protocol: The CPP/CAS9 and CPP/CAS9/sgRNA particles were further characterized; the mean size, polydispersity and zeta potential were measured with Zetasizer 4 apparatus (Malvern Ltd). […] The mean size and the polydispersity of the CCP/CAS9 and CCP/CAS9:gRNA complexes were determined at 25° C. for 3 min per measurement and zeta potential was measured with Zetasizer 4 apparatus (Malvern Ltd).

[5] = test system: endogenous EMX1 gene in U2OS, JURKAT and K562 cells; assay: EMX1 gene editing from CPP delivery of CAS9/gRNA (T7E1 assay); assay type: cell-based, human
Protocol: RNAiMAX delivery was used as a positive control as it was previously reported to show better results than Lipofectamine 2000 (Zuris et al., 2015, supra). […] Cells were returned to the incubator for 72 hours.

[6] = test system: endogenous EMX1, AAVS and HPRT genes in Mouse (ESF-158) embryonic stem cells; assay: Delivery of multiple RGEN:gRNA complexes: EMX1, AAVS, HPRT editing in mouse ES cells (T7E1); assay type: cell-based
Protocol: (§1) RNAiMAX delivery method was used as a positive control.
(§2) U2OS cells were treated as described previously. H9 embryonic stem cells were cultured in Dulbecco's modified Eagle's medium with 4 mM L-glutamine adjusted to contain 1.5 g/L sodium bicarbonate and 4.5 g/L glucose and supplemented with 0.1 mM 2-mercaptoethanol, 85%; and 15% ES-Cell Qualified fetal bovine serum. […] CAS9-induced double-strand break formation followed by repair through NHEJ was analyzed 72 hr after transfection by T7E1 assay and quantified using Fragment Analyzer System. The deletion (indel) frequencies in EMX1, AAVS and HPRT genes were quantified using T7E1 assay. Data for on-target mutations induced by RGEN:gRNA are reported as an average of 3 separate experiments.

[7] = test system: EGFP-U2OS, EGFP-HEK, EGFP-JURKAT cells; assay: Toxicity of CPP/CAS9/gRNA complexes (MTT assay); assay type: cell-based; details: three cell lines; concentrations up to 100 nM; 24 h
Protocol: The robust EGFP disruption observed in the three cell lines was found not to be the result of cellular toxicity. […] A total of 30,000 cells seeded in 24-well plates the day prior to transfection were incubated with increasing concentrations of CPP/CAS9/gRNA (complexed at a 10:1 or 20:1 molar ratio of CPP to preloaded CAS9/gRNA complex) ranging from 1 to 200 nM for 30 min prior to addition of medium to reach a final 10% concentration of FCS. Cytotoxic response was measured 24 hours later by colorimetric MTT assay (Sigma, Germany). For MTT assay, cell culture medium was removed and replaced with PBS containing 2.5 mg/ml MTT for 4 hours. Results correspond to the average of 3 separate experiments. […] Viability was reduced by less than 10% at 200 nM. In contrast, at […] for Lipofectamine 2000 or RNAiMAX, between 60-70% and 20-25% cell death was observed, depending on cell line. Moreover, both lipid methods appeared to be highly toxic on JURKAT cells, inducing 75% (lipofectamine 2000) or 45% (RNAiMAX) cell death.

[8] = test system: endogenous EMX1 and exogenous EGFP reporter genes in GFP-U2OS, EGFP-JURKAT cells; assay: Delivery of multiple RGEN/gRNA complexes: EMX1 and EGFP editing; assay type: cell-based, human
Protocol: RNAiMAX delivery was used as positive control. Cells were treated as described previously and CAS9-induced NHEJ analyzed 72 hr after transfection. […] The deletion (indel) frequency in the EMX1 gene was quantified using the T7E1 assay and loss of EGFP expression was monitored by flow cytometry. Data for on-target mutations induced by RGEN/gRNA are reported as an average of 3 separate experiments.

[9] = test system: endogenous EMX1, AAVS and HPRT genes in U2OS and Human (H9) embryonic stem cells; assay: Delivery of multiple RGEN:gRNA complexes: EMX1, AAVS, HPRT editing in U2OS and H9 ES cells (T7E1); assay type: cell-based
Protocol: as §1, §2

GLWRALWRLLRSLWRLLWKV [CADY, reference compound]
reduction of EGFP-positive cells [1]: 18%
decrease in EGFP expression ([1]; HEK): 42%
reduction of EGFP-expressing cells / loss of EGFP expression ([1]; 1 nM CAS9:gRNA): no change in EGFP expression
decrease in EGFP expression ([1]; U2OS): 33%
loss of EGFP expression ([1]; both cell lines (U2OS, HEK), 1 nM CAS9:gRNA): no change in EGFP expression
Mean indel Frequency ± s.e.m ([2]; JURKAT): 12 ± 9%
Mean indel Frequency ± s.e.m ([2]; K562): 15 ± 9%
Mean indel Frequency ± s.e.m ([3]; Donor 1, CAS9/sgRNA 2.5 μg/5 μg): 0%
Mean indel Frequency ± s.e.m ([3]; Donor 1, CAS9/sgRNA 5 μg/10 μg): 0%
Mean indel Frequency ± s.e.m ([3]; Donor 2, CAS9/sgRNA 2.5 μg/5 μg): 0%
Mean indel Frequency ± s.e.m ([3]; Donor 2, CAS9/sgRNA 5 μg/10 μg): 0%
mean indel frequency of hPD1 gene ([3]; T cells from the two donors, 5 μg/10 μg CAS9/gRNA): No editing
complex formation with CAS9 [4]: did not form any complex
PI ([4]; Cas9:gRNA, molar ratio 20/1): 0.6 and 0.6 ± 0.2
Size ([4]; Cas9:gRNA, molar ratio 20/1): 350±20 nm
zeta ([4]; Cas9:gRNA, molar ratio 20/1): 45 ± 8 MV
formation of stable particles with preloaded CAS9:gRNA complex ([4]; molar ratio 10:1): neither CADY nor VEPEP-9 formed stable particles

N=C(N)NCCC[C@H](NC(=O)[C@H](CCCNC(=N)N)NC(=O)[C@H](CCCCN)NC(=O)[C@H](CCCNC(=N)N)NC(=O)[C@@H]1CCCN1C(=O)[C@H](Cc1c[nH]c2ccccc12)NC(=O)[C@H](CCC(=O)O)NC(=O)[C@H](CCCNC(=N)N)NC(=O)[C@H](Cc1c[nH]c2ccccc12)NC(=O)[C@H](Cc1c[nH]c2ccccc12)NC(=O)[C@H](CCCNC(=N)N)NC(=O)[C@H](CCC(=O)O)NC(=O)[C@H](Cc1c[nH]c2ccccc12)NC(=O)[C@H](Cc1c[nH]c2ccccc12)NC(=O)[C@H](CCCCN)NC(=O)CCN)C(=O)O [VEPEP-3b]
reduction of EGFP-positive cells [1]: 87%
reduction of number of EGFP-expressing cells ([1]; HEK, 1 nM CAS9:gRNA): 71%
decrease in EGFP expression ([1]; HEK): 93%
reduction of EGFP-expressing cells / loss of EGFP expression ([1]; 1 nM CAS9:gRNA): 55%
reduction of number of EGFP-expressing cells ([1]; U2OS, 1 nM CAS9:gRNA): 68%
decrease in EGFP expression ([1]; U2OS): 92%
Mean indel Frequency ± S.E.M ([5]; JURICAT, CAS9/sgRNA 25 nM): 69% and 69 ± 8%
Mean indel Frequency ± S.E.M ([5]; JURKAT, CAS9/sgRNA 50 nM): 71 ± 5%
Mean indel Frequency ± S.E.M ([5]; K562, CAS9/sgRNA 25 nM): 79% and 79 ± 5%
Mean indel Frequency ± S.E.M ([5]; K562, CAS9/sgRNA 50 nM): 81 ± 7%
Mean indel Frequency ± S.E.M ([5]; U2OS, CAS9/sgRNA 25 nM, 20:1): 75% and 75 ± 7%
Mean indel Frequency ± S.E.M ([5]; U2OS, CAS9/sgRNA 50 nM): 77 ± 5%
Mean indel Frequency ± S.E.M ([6]; AAVS): 79 ± 5%
Mean indel Frequency ± S.E.M ([6]; EMX1): 84 ± 6%
Mean indel Frequency ± S.E.M ([6]; HPRT): 85 ± 7%
toxicity [7]: no toxicity
Mean indel Frequency ± S.E.M ([8]; JURKAT, EGFP): 84 ± 7%
Mean indel Frequency ± S.E.M ([8]; JURKAT, EMX1): 79 ± 7%
Mean indel Frequency ± S.E.M ([8]; U2OS, EGFP, 25 nM each complex): 80 ± 5%
Mean indel Frequency ± S.E.M ([8]; U2OS, EMX1): 82 ± 6%
PI ([4]; Cas9:gRNA, molar ratio 10/1): 0.35 ± 0.1
Size ([4]; Cas9:gRNA, molar ratio 10/1): 38 ± 4 nm
zeta ([4]; Cas9:gRNA, molar ratio 10/1): 27.0 ± 4 MV
PI ([4]; Cas9:gRNA, molar ratio 20/1): 0.37 ± 0.1
Size ([4]; Cas9:gRNA, molar ratio 20/1): 51 ± 5 nm
zeta ([4]; Cas9:gRNA, molar ratio 20/1): 25.3 ± 7 MV
Pt ([4]; Cas9, molar ratio 10/1): 0.33 ± 0.1
zeta ([4]; Cas9, molar ratio 10/1): 21.0 ± 5 mV
Size ([4]; Cas9, molar ratio 10/1, 0.9% NaCl): 45 ± 5 nm
Pt ([4]; Cas9, molar ratio 20/1): 0.35 ± 0.1
Size ([4]; Cas9, molar ratio 20/1): 52 ± 5 nm
zeta ([4]; Cas9, molar ratio 20/1): 17.0 ± 5 mV
formation of stable nanoparticles ([4]; with CAS9 and CAS9:gRNA complex, molar ratio 10:1 or 20:1): able to form stable nanoparticles
Mean diameter ([4]; with CAS9 and CAS9:gRNA, molar ratio 10:1 or 20:1): about 50 nm
Mean indel Frequency ± S.E.M ([9]; H9, AAVS): 71 ± 7%
Mean indel Frequency ± S.E.M ([9]; H9, EMX1): 67 ± 6%
Mean indel Frequency ± S.E.M ([9]; H9, HPRT): 70 ± 4%
Mean indel Frequency ± S.E.M ([9]; U2OS, AAVS): 75 ± 7%
Mean indel Frequency ± S.E.M ([9]; U2OS, EMX1, 20 nM each complex): 82 ± 5%
Mean indel Frequency ± S.E.M ([9]; U2OS, HPRT): 84 ± 6%
